Data taken from US20240115557A1, “INHIBITORS OF RNA-GUIDED NUCLEASES AND USES THEREOF” (The Brigham and Women's Hospital, Inc., priority 2022, published 2024).

Experiments:
SpCas9 = SpCas9 (Streptococcus pyogenes serotype M1, UniProt Q99ZW2); test: Strand displacement assay (SDA) / cumulative activity assay (CAA), SpCas9 primary screen; type: biochemical; settings: Primary Screen (150 min); for Average Normalized Z score: average of replicates; for Normalized Z score 1: replicate 1; for Normalized Z score 2: replicate 2
Description: Screening of inhibitors was via a high throughput pipeline, as depicted in FIG. 29. The first screening is via a strand displacement assay (SDA) for detecting nuclease activity (FIG. 27A, 28A). The Cpf1/Cas12 protein/DNA complex has a different structure from Cas9 and requires optimization of the potential fluorophore attachment sites (Yamano, T et al., Cell, 2016). (FIG. 28A). Next screened compounds are evaluated in an eGFP cell assay, and for eGFP dose. Those compounds are further narrowed via a HiBiT assay and finally evaluated in the surveyor assay. SAR evaluations are performed to arrive at lead compounds for further evaluations and variations. General methodology for the assays is as described in at [0253]-[0301] of U.S. Patent Application 62/831,143 filed Apr. 8, 2019, incorporated herein by reference.
The 3′ end of the displacing single-stranded DNA was labeled with a quencher. Following nuclease cleavage of the substrate, the 3′-labeled quenching DNA strand (present in excess) could outcompete the weakly held 3′ strand to anneal to the 5′ strand. The resulting FRET fluorescence quenching provides an optical readout for nuclease activity (FIG. 62A).
Typically, SpCas9: gRNA (1:1.2 ratio) RNP was pre-formed at 1 μM in Cas9 assay buffer (20 mM Tris-HCl, pH=7.5, 100 mM KCl, 5 mM MgCl2) for 5 min at 4° C. before diluting to 10 nM in Cas9 assay buffer (2× final concentration). 25 μL of the Cas9 2× stock was manually dispensed to a black 384-well plate (Corning 3575) using electronic pipette. […] Following this, pre-annealed Alexa-Fluor 647 labeled substrate and quencher were also diluted to 1 nM and 5 nM in Cas9 assay buffer, respectively (2× stock solution). Next, 25 μL of the substrate/quencher solution was added manually to each well of the Cas9-containing 384-well plates using an electronic pipette and was incubated at 37° C. for 2.5 h. Fluorescent signals were read with the microplate reader set to read Alexa-Fluor 647 fluorescence. Assay was performed similarly with SaCas9 and FnCas12a using the respective enzyme, gRNA, substrate, and quencher oligos. […]

SaCas9 = target: T1, SaCas9 (Staphylococcus aureus, UniProt J7RUA5); test: Strand displacement assay, SaCas9 primary screen; type: biochemical; settings: for Auto Zscore Rep 1 / Auto Zscore Rep 2 / Normalized Zscore Rep 1 / Normalized Zscore Rep 2: SaCas9 primary screen; for Auto Zscore Rep 1 / Normalized Zscore Rep 1: replicate 1; for Auto Zscore Rep 2 / Normalized Zscore Rep 2: replicate 2; for Normalized Zscore Rep 1 / Normalized Zscore Rep 2: weaker potential hits; for 3 sigma Hit: flag 1 = hit at 3 sigma; for 5 sigma Hit: flag 1 = hit at 5 sigma
T1 sequence (J7RUA5 1-1053): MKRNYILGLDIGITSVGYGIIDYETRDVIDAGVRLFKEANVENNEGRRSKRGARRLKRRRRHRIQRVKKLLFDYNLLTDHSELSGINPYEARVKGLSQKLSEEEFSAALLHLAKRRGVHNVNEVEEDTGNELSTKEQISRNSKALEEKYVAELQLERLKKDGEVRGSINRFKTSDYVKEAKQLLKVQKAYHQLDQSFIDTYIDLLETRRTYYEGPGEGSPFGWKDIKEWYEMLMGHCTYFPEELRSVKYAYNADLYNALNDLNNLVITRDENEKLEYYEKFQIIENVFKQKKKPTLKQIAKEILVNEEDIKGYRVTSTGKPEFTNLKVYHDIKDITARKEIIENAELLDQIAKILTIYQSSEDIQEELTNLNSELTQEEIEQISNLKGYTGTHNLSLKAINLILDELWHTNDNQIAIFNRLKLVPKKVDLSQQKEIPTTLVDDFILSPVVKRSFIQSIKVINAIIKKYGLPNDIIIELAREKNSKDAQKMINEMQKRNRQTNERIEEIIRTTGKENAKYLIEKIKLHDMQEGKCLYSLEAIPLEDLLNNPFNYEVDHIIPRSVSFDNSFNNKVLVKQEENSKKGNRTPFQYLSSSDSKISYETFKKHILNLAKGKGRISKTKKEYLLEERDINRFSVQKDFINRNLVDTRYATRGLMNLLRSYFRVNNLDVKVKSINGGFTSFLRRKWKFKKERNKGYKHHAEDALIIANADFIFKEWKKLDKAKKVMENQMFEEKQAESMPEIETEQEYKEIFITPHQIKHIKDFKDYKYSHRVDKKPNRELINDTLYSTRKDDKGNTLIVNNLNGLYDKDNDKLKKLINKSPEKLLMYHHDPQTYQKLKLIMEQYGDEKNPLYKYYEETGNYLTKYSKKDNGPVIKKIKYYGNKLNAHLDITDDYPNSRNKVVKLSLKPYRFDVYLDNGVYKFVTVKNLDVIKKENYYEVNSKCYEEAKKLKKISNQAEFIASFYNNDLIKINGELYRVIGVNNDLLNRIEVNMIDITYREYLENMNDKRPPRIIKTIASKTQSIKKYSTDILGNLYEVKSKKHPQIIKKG
Outline: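 Cas9 RNP (1:1.2 protein:gRNA) pre-formed in 20 mM Tris-HCl pH 7.5, 100 mM KCl, 5 mM MgCl2, used at 10 nM (2× stock) with Alexa-Fluor 647 substrate/quencher at 1 nM/5 nM (2× stock). Reaction ran 2.5 h at 37°C; strand displacement read as fluorescence. Hits called by Z-score: 3–5σ weak, >5σ strong.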

Chain of SpCas9 (Q99ZW2 whole entry): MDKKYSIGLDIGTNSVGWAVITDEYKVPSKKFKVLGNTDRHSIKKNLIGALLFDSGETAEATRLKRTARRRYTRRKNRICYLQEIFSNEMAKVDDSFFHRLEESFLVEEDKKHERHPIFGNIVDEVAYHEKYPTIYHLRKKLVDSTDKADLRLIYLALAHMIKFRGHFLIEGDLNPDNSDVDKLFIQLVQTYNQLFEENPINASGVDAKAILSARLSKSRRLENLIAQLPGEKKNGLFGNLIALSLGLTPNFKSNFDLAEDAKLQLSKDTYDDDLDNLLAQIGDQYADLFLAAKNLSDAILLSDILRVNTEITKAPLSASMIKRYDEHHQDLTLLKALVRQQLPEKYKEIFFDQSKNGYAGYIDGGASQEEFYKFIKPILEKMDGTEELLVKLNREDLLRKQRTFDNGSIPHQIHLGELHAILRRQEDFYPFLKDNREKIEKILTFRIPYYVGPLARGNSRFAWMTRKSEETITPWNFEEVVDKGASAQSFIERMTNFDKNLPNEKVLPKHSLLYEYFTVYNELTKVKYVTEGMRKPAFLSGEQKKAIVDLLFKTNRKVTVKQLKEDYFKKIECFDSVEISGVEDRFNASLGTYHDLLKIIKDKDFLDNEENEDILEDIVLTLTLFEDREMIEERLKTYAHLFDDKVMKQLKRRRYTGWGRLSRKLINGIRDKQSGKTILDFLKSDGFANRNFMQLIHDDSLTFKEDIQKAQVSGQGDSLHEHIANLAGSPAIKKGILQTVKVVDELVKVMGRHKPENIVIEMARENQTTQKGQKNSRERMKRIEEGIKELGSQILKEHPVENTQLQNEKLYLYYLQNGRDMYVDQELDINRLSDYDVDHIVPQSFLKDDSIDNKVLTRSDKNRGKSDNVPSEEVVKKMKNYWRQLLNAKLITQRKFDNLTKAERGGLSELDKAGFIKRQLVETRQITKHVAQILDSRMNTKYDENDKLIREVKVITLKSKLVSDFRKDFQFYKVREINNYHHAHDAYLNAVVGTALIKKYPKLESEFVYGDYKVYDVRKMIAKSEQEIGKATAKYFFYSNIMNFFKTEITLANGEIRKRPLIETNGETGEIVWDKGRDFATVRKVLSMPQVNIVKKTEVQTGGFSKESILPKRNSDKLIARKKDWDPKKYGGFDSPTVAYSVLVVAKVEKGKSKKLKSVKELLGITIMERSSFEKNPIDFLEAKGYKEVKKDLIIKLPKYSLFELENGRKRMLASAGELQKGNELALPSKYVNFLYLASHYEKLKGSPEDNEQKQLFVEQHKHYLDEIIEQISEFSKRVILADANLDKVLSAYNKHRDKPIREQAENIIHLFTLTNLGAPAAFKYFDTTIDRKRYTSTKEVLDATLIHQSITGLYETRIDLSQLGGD

Row | Auto Zscore Rep 1 (SaCas9) | Auto Zscore Rep 2 (SaCas9) | Normalized Zscore Rep 1 (SaCas9) | Normalized Zscore Rep 2 (SaCas9) | 3 sigma Hit (SaCas9) | 5 sigma Hit (SaCas9) | SMILES | avg z score primary (SpCas9) | Average Normalized Z score (SpCas9) | Normalized Z score 1 (SpCas9) | Normalized Z score 2 (SpCas9)
1 | – | – | – | – | – | – | Cl.NC(CO)C(=O)NNCc1ccc(O)c(O)c1O (stereo not shown) [Compound S2453] | 5.09 | 0.26 | 0.21 | 0.32
2 | – | – | – | – | – | – | Cn1cccc1/C=C\C(=O)O [Compound T5365031] | 4.17 | 0.28 | 0.27 | 0.28
3 | – | – | – | – | – | – | CCC(CC)NC(=O)c1ccc2ncsc2c1 [Compound T5324509] | 7.80 | 0.10 | 0.12 | 0.09
4 | – | – | – | – | – | – | COc1ccc(-n2c(N(C(C)=O)C(C)=O)c(C#N)c3nc4ccccc4nc32)cc1 [Compound T0503-6223] | 14.21 | 0.16 | 0.16 | 0.16
5 | – | – | – | – | – | – | NC(=S)c1ccccn1 [Compound T5211106] | 3.58 | 0.04 | 0.04 | 0.04
6 | – | – | – | – | – | – | O=C(O)C(S)=C/C=C\c1ccccc1 [Compound T5441826] | 4.20 | 0.05 | 0.03 | 0.06
7 | – | – | – | – | – | – | O=C1NC(=S)C(=C2CCCC2)S1 [Compound T5441809] | 22.96 | 0.26 | 0.27 | 0.24
8 | – | – | – | – | – | – | CCc1ccc(NC(=O)C(C#N)=Cc2cc(C#N)n(C)c2C)cc1 [Compound T5229649] | 4.90 | 0.07 | 0.06 | 0.08
9 | 2.129 | 2.544 | 0.2953 | 0.3056 | 1 | 1 | CCN(CCN(C)C)c1ncc(NS(=O)(=O)c2cc(C)c(C)cc2C)cc1C(=O)O [Cpd F293-0515] | – | – | – | –
10 | 0.429 | 0.8302 | 0.3494 | 0.3285 | 1 | 1 | COc1cccc(CNCc2cccn2-c2sc(C)c(C)c2C(=O)O)c1 [Cpd C795-1664] | – | – | – | –
11 | 1.322 | 0.6629 | 0.2335 | 0.4628 | 1 | – | O=c1ccc2ccc(OCc3nnn[nH]3)cc2o1 [Cpd D715-0997] | – | – | – | –
12 | −0.1185 | 0.01199 | 0.2241 | 0.205 | 1 | 1 | CCN(Cc1ccccc1)c1ccc(NS(=O)(=O)c2c(C)cc(C)cc2C)cc1C(=O)O [Cpd F294-0002] | – | – | – | –
13 | 0.2771 | −0.1319 | 0.2333 | 0.2114 | 1 | 1 | CCN(CC)c1ncc(NS(=O)(=O)c2cc(C)c(C)cc2C)cc1C(=O)O [Cpd F293-0740] | – | – | – | –
14 | −1.677 | −1.264 | 0.1772 | 0.1434 | 1 | – | CCN(Cc1ccccc1)c1ccc(NS(=O)(=O)c2cc(OC)ccc2OC)cc1C(=O)O [Cpd F294-0012] | – | – | – | –
15 | 0.3791 | −0.09351 | 0.2023 | 0.2291 | 1 | – | CCN(Cc1ccccc1)c1ncc(NS(=O)(=O)c2c(C)cc(C)cc2C)cc1C(=O)O [Cpd F293-0002] | – | – | – | –
16 | −0.2858 | −0.7265 | 0.1668 | 0.1791 | 1 | – | CCN(Cc1ccccc1)c1ccc(NS(=O)(=O)CC)cc1C(=O)O [Cpd F294-0006] | – | – | – | –
17 | 0.9351 | −0.9427 | 0.5034 | 0.5292 | 1 | 1 | Cc1nn2c(=O)cc(COc3ccc(C)c(C)c3)nc2s1 [Cpd C679-2752] | – | – | – | –
18 | 0.7411 | 0.4717 | 0.507 | 0.5892 | 1 | 1 | C=C1C(C(=O)NCc2ccco2)C1C(=O)NCc1ccco1 (stereo not shown) [Cpd T0501-2919] | – | – | – | –
19 | 0.8868 | 0.9986 | 0.2248 | 0.1621 | 1 | – | c1ccc(CCCNc2nn3nnnc3c3ccccc23)cc1 [Cpd C301-8945] | – | – | – | –
20 | −1.3165 | 0.881 | 0.3066 | 0.3358 | 1 | 1 | O=C(CSc1nnc2ccccn12)N1CCc2ccccc2C1 [Cpd T0512-2617] | – | – | – | –
21 | 1.342 | 0.9231 | 0.3022 | 0.2957 | 1 | 1 | CCN(Cc1ccccc1)c1ncc(NS(=O)(=O)CC)cc1C(=O)O [Cpd F293-0006] | – | – | – | –
22 | −0.03529 | 0.492 | 0.2255 | 0.1818 | 1 | – | Cc1sc2c(c1C)CSC(C(=O)Nc1c(C)n(C)n(-c3ccccc3)c1=O)=C2 [Cpd E722-1395] | – | – | – | –
23 | −0.4729 | −0.3637 | 0.198 | 0.181 | 1 | 1 | Cc1ccc(CSc2nc3c(c(=O)[nH]2)C(c2ccc(O)c(O)c2)CC(=O)N3)cc1 (stereo not shown) [Cpd D271-0008] | – | – | – | –
24 | 1.676 | 1.235 | 0.2087 | 0.159 | 1 | – | CN(C)c1ncc(NS(=O)(=O)c2ccc(F)c(F)c2)cc1C(=O)O [Cpd F293-0815] | – | – | – | –
25 | 0.8114 | 1.196 | 0.2469 | 0.2531 | 1 | 1 | Cc1cc(C)c(S(=O)(=O)Nc2cnc(N3CCCC3)c(C(=O)O)c2)c(C)c1 [Cpd F293-0426] | – | – | – | –
